Measurements from ChEMBL document CHEMBL1201862, “PubChem BioAssay data set” (2004).
The source made the active and inactive calls.

Columns and labels:
[1] = target: Protein-tyrosine kinase 2-beta (Homo sapiens, UniProt Q14289);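 note: potency of inhibitors of PYK2 kinase phosphorylation of poly-GT substrate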
[2] = target: T1, Polyadenylate-binding protein 1 (Homo sapiens, UniProt P11940); assay: MLLE binding blockers, Cy5 peptide tracer – biochemical, fluorescence polarization, Cy5-PAM2 peptide, secondary, miRNA deadenylation inhibitor project, dose response (AID 602260); format: functional; settings: read-out: IC50_Mean
Ion channel NompC = Ion channel NompC (Danio rerio, UniProt Q7T1G6); assay: Fluorescence counterscreen assay for TRPML3 agonists: dose response cell-based high-throughput screening assay to identify agonists of the transient receptor potential channel N1 (TRPN1). [Related pubchem assays: 1526, 1424, 1448 ]; format: functional
[3] = target: T1, Polyadenylate-binding protein 1; assay: MLLE domain peptide-binding blockers, IC50 – biochemical, fluorescence polarization, FITC-PAM2 peptide, dose response (AID 602259); format: functional; settings: read-out: IC50_Mean
Mucolipin-3 = Mucolipin-3 (Homo sapiens, UniProt Q8TDD5); assay: Dose response cell-based high-throughput screening assay for agonists of the transient receptor potential channel ML3 (TRPML3). [Related pubchem assays: 1526, 1424, 1448 ]; format: functional
P388/ADR = assay: cells; format: functional; settings: Mus musculus, P388/ADR
[4] = Luminescence-based dose response cell-based high throughput screening assay for cytotoxic compounds using the IEC-6 intestinal epithelial cell line. [Related pubchem assays: 1858 (Summary AID.), 1825 (Counterscreen.), 1907 (Confirmation screen.)]; format: functional
[5] = target: T2, Mannose-6-phosphate isomerase (Homo sapiens, UniProt P34949); assay: MPI inhibition at elevated mannose 6-phosphate – biochemical, fluorescence intensity, high mannose 6-phosphate, primary screen (AID 1220)
T2 sequence (P34949 whole entry): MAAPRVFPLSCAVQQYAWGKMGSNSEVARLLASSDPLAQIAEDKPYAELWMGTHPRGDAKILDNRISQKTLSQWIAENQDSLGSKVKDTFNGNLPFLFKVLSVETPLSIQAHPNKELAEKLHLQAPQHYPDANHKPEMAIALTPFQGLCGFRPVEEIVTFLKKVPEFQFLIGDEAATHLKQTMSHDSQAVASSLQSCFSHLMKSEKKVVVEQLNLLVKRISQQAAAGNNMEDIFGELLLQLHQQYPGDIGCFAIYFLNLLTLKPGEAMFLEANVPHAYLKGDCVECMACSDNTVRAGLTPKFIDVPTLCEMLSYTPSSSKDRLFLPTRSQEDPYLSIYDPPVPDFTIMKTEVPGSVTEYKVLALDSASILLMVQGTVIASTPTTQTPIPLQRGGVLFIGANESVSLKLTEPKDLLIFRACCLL

[6] = viability loss in THP-1 monocytes – THP-1 cells, cytotoxicity control for Vif-APOBEC3G degradation inhibitor project, dose response (AID 1117359); format: functional; settings: THP-1
SN12K1 = assay: cells; format: functional; settings: Homo sapiens
P388 = assay: cells; format: functional; settings: Mus musculus, P388
[7] = target: Lytic switch protein BZLF1 (Epstein-Barr virus (strain B95-8) (HHV-4) (Human herpesvirus 4), UniProt P03206); assay: inhibition of BZLF1 ZTA DNA binding – biochemical, fluorescence polarization, Epstein-Barr virus, 1536-well, counter-screen for EBNA-1 inhibitor project, dose response (AID 2377); parameters: species or system human gammaherpesvirus 4;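 note: fluorescence polarization of Cy5-labelled ZRE DNA probe bound by purified Zta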
[8] = target: Epstein-Barr nuclear antigen 1 (Epstein-Barr virus (strain B95-8) (HHV-4) (Human herpesvirus 4), UniProt P03211); assay: inhibition of EBV nuclear antigen 1 DNA binding – biochemical, fluorescence polarization, 1536-well, dose response (AID 2381); parameters: species or system human gammaherpesvirus 4;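 note: fluorescence polarization of a Cy5 DNA probe bound by EBNA-1 protein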
NADPH oxidase 1 [9] = target: T3, NADPH oxidase 1 (Homo sapiens, UniProt Q9Y5S8); assay: Luminescence-based cell-based dose response assay to identify inhibitors of NADPH oxidase 1 (NOX1).; format: functional
T3 sequence (Q9Y5S8 whole entry): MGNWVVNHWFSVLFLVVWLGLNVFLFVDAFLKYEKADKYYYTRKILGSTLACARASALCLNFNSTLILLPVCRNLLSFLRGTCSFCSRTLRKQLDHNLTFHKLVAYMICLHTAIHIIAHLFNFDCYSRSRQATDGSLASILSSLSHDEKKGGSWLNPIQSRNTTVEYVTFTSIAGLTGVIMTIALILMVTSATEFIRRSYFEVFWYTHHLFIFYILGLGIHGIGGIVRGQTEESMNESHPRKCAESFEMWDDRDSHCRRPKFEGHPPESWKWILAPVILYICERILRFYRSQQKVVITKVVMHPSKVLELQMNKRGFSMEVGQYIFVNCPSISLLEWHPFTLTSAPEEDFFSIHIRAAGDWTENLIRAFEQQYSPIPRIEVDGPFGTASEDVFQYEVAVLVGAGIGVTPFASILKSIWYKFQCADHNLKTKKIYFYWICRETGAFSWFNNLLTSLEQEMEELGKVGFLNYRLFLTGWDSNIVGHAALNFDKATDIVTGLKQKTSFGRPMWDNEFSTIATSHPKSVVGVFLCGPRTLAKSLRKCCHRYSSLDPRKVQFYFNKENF

NADPH oxidase 1 [10] = target: T3, NADPH oxidase 1; assay: Late-stage luminescence-based cell-based dose response assay to identify inhibitors of NADPH oxidase 1 (NOX1): Synthesized analogs.; format: functional
[11] = target: Aryl hydrocarbon receptor (Homo sapiens, UniProt P35869); assay: Luminescence-based cell-based high throughput dose response assay for activators of the Aryl Hydrocarbon Receptor (AHR). [Related pubchem assays: 2796 (Primary screen (AHR activators in singlicate)), 2845 (Confirmation screen (AHR activators in triplicate)), 434939 (Counterscreen (PXR activators in triplicate)), 2804 (Summary (AHR activators))]; format: ADME
[12] = target: T4, Carboxy-terminal domain RNA polymerase II polypeptide A small phosphatase 1 (Homo sapiens, UniProt Q9GZU7); assay: CTDSP1 inhibitors, concentration-response, biochemical, absorbance readout, ultra-high-throughput screen actives (AID 540297); format: functional
T4 sequence (Q9GZU7 whole entry): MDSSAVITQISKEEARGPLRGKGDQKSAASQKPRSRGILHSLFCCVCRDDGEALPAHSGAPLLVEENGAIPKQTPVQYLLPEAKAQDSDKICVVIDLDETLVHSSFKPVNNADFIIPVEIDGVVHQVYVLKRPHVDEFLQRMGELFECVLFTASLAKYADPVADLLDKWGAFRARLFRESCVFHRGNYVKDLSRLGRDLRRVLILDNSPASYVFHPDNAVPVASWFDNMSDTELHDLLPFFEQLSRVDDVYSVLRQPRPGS

[13] = target: Mitochondrial peptide methionine sulfoxide reductase (Bos taurus, UniProt P54149); format: functional;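 note: absorbance read-out, biochemical high-throughput dose-response screen for MsrA inhibitors, confirmatory; recombinant bovine MsrA coupled to E. coli TrxB with NADPH and selenocystamine; potency is for inhibitors of MsrA activity on DMSO substrate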
Mitochondrial peptide methionine sulfoxide reductase, sequence (P54149 whole entry): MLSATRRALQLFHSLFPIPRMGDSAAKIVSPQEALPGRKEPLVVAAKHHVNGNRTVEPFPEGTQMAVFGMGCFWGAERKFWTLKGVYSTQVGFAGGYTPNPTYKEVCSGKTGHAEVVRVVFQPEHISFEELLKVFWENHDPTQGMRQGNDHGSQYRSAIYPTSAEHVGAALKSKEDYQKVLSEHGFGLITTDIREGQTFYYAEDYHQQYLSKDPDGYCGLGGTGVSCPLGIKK

T1 sequence (P11940 whole entry): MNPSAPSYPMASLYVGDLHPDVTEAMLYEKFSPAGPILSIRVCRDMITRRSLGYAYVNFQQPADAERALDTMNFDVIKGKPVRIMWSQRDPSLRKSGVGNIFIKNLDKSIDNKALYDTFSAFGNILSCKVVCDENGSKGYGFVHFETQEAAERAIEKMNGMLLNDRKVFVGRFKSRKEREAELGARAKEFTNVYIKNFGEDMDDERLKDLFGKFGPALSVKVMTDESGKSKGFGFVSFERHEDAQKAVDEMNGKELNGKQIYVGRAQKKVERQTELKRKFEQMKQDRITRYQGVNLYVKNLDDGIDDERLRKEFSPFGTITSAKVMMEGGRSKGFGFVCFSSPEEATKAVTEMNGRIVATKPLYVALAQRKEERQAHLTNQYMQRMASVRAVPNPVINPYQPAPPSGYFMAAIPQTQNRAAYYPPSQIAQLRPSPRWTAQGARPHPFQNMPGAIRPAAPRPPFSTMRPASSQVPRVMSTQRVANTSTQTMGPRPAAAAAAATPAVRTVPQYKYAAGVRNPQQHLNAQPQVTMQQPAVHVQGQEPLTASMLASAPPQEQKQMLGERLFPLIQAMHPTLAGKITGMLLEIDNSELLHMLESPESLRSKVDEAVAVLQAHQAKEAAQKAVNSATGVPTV
Protein-tyrosine kinase 2-beta, sequence (Q14289 whole entry): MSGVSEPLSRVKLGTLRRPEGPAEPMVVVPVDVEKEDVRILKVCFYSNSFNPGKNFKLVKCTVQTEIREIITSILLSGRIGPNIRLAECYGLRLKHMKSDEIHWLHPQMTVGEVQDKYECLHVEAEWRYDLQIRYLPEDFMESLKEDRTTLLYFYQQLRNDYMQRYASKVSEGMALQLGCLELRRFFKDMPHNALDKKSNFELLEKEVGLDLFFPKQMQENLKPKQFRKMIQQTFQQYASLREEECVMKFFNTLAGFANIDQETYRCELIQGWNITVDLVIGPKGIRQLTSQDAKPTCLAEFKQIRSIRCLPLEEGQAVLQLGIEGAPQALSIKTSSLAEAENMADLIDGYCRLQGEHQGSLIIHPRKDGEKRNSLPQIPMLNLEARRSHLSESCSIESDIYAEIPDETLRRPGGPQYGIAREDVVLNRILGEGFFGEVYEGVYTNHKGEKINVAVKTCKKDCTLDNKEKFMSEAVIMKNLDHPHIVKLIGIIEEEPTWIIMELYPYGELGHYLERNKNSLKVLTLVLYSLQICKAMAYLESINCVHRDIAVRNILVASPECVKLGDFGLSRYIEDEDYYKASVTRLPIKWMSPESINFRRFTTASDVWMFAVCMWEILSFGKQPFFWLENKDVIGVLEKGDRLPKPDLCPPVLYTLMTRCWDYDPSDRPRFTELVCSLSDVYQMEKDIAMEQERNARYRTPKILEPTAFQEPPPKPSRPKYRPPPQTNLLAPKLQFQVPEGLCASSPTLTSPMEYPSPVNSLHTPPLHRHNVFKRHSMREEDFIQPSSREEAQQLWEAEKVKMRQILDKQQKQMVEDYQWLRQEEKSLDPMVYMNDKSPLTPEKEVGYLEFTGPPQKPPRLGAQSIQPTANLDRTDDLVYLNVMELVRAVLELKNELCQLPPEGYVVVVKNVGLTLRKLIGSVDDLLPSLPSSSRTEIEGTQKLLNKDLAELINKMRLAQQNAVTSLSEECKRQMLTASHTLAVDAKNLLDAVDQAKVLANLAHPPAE
Aryl hydrocarbon receptor, sequence (P35869 whole entry, the tested form may be a part): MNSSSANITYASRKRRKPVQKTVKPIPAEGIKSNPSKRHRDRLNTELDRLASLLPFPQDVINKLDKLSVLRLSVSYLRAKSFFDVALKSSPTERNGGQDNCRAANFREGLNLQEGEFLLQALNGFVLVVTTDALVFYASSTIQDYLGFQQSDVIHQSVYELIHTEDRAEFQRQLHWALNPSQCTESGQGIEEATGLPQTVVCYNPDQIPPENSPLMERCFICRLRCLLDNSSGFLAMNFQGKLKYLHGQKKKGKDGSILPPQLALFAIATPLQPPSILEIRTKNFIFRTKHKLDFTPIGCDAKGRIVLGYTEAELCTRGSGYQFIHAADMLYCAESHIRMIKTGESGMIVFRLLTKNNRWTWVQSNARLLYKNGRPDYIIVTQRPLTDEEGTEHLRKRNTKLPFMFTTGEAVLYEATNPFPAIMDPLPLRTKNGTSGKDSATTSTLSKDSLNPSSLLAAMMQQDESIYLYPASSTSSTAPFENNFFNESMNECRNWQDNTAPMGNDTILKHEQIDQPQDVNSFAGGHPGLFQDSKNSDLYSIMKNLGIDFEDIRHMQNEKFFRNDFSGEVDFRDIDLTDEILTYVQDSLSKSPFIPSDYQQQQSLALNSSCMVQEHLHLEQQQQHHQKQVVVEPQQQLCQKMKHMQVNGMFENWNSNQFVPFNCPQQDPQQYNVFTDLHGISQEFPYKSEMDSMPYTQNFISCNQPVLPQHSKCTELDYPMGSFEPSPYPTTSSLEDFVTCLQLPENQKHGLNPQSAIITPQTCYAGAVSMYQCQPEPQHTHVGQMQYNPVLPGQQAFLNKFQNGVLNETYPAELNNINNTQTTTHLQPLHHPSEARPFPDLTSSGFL
Epstein-Barr nuclear antigen 1, sequence (P03211 whole entry): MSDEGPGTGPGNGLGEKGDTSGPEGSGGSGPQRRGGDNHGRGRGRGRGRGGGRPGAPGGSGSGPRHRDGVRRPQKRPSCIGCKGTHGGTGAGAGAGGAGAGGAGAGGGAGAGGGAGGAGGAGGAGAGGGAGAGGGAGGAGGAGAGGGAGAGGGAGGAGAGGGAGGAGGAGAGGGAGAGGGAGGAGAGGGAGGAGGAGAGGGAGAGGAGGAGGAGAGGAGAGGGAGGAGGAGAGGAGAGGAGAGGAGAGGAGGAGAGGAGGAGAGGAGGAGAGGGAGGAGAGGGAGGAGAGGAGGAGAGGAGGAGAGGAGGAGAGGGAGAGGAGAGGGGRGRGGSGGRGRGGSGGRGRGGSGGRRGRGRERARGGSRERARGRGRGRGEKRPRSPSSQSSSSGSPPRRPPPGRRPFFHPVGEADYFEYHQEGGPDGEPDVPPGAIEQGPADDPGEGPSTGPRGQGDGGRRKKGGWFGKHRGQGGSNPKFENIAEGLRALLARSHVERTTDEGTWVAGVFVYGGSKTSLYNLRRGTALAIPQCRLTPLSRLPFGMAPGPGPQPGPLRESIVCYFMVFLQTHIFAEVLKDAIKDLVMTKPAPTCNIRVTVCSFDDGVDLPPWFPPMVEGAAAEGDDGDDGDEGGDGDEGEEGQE
Lytic switch protein BZLF1, sequence (P03206 whole entry): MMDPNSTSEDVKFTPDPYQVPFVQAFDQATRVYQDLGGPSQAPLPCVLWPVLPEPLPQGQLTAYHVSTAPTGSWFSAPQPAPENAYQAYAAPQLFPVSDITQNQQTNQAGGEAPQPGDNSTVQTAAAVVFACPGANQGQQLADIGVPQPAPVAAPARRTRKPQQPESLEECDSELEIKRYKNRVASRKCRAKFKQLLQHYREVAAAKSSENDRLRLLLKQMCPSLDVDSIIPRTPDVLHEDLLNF
Mucolipin-3, sequence (Q8TDD5 whole entry): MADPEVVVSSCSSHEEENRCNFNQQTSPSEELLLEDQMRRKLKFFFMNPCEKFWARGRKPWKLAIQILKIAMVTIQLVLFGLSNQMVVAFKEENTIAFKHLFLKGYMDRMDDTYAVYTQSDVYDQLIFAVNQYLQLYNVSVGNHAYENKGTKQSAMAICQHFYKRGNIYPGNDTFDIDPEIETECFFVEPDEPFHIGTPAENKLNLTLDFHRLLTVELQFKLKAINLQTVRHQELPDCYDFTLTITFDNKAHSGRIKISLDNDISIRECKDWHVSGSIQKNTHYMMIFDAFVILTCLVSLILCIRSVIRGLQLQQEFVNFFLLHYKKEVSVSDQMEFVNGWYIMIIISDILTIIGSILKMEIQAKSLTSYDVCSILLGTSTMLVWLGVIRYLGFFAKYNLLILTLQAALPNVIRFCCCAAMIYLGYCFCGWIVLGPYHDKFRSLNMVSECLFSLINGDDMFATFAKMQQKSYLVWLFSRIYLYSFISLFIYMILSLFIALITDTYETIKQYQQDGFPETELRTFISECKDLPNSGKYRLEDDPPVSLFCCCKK

N#Cc1cnn2c1nc(N1CCOCC1)c1ccccc12
IC50 [1]: > 69.5 µM (not active)

O=C1C(Cl)=C(N2CCN(Cc3ccccc3)CC2)C(=O)N1Cc1ccccc1
IC50 [2]: > 66 µM (inactive) | EC50 (Ion channel NompC): > 29.9 µM (not active) | IC50 [3]: > 66 µM (inactive) | EC50 (Mucolipin-3): 5.29 µM (active)

COC1=C(N)C(=O)c2nc(-c3nc(C(=O)O)c(C)c(-c4ccc(OC)c(OC)c4O)c3N)ccc2C1=O [STREPTONIGRIN]
GI50 (P388/ADR): 0.0287 µM (active) | IC50 [4]: 0.0094 µM (active) | IC50 [5]: > 50 µM (not active) | CC50 [6]: 2.96 µM (active) | GI50 (SN12K1): < 0.01 µM (active) | GI50 (P388): 0.0352 µM (active)

Cc1ccccc1OCCn1cc(/C=C(\C#N)C(=O)NCc2ccco2)c2ccccc21
IC50 [7]: > 111 µM (not active) | IC50 [8]: 39.9 µM (not active)

O=S1(=O)c2ccccc2Nc2ccccc21
IC50 (NADPH oxidase 1 [9]): 6.6 µM (active) | IC50 (NADPH oxidase 1 [10]): > 50 µM (not active)

O=C(N/N=C/c1ccco1)c1ccc(C(=O)N/N=C/c2ccco2)o1
EC50 [11]: 5.21 µM (active) | IC50 [12]: 4.92 µM (active) | IC50 [13]: 114 µM (inactive)
